Data on 16 molecules can be found in patent US4442090A, “Absorption-promoting compounds, compositions thereof with pharmaceuticals and/or bases for rectal administration and method of use” (Kyoto Yakuhin Kogyo Kabushiki Kaisha, priority 1980, dated 1984).

Data set [1] in a line: Urinary excretions of AB-PC after administration of AB-PC rectal suppository (human). The data set is classed as in vivo. The following applies: AB-PC 125 mg (potency); for Urinary excretions of AB-PC (%) (0-6 hr.): added compound 10%, Witepsol H-15, % of dose; for Urinary excretions (%) 0-2 (hr.) / Urinary excretions (%) 2-4 (hr.) / Urinary excretions (%) 4-6 (hr.) / Urinary excretions (%) Total (0-6 hr.): Compound (I) 10%, Witepsol H-15, Table 3. The method, then:
The thus-obtained suppositories were administered to healthy adult male humans from the anus, and the urinary excretions of AB-PC were determined.

Data set [2] can be described thus: Urinary excretions of β-lactam antibiotics after rectal suppository (rabbit). Format: in vivo. The settings on record: Compound (I) 5%, Witepsol H-15. The method, then:
The absorption into the circulation through the rectum of the rectal suppositories thus prepared was determined by measuring urinary excretion of the pharmacologically-active substance.
Thus, Sarcina lutea and Bacillus subtilis were used as assay organisms for penicillins and cephalosporins, respectively, and the assays were performed by the paper disk method (cultivation at 37° C. for from 15 to 20 hours).

Each structure is given as a SMILES string.

For `Nc1ccc(C(=O)O)cc1` [P--Aminobenzoic acid Na, P--Aminobenzoic acid, reference compound], the “Urinary excretions of AB-PC (%) (0-6 hr.)” value in data set [1] amounted to 4.9%.

`O=C(O)c1ccccc1` [Benzoic acid Na, Benzoic acid, reference compound]: the “Urinary excretions of AB-PC (%) (0-6 hr.)” value in data set [1] is recorded as 5.6%.

As to `CCCCN(CCCC)C(=O)CCC(=O)O` [Compound 15-Na, N,N--Di-(n-butyl)succinamic acid], in data set [2] (Cefmetazole 125 mg (potency)), the “Urinary excretions (%) 0-2 hr.” value turned out to be 44.0%, the “Urinary excretions (%) 2-4 hr.” value is on record as 20.0%, the “Urinary excretions (%) 4-6 hr.” value stood at 1.0% and the “Urinary excretions (%) Total (0-6 hr.)” value amounted to 65.9%.

Regarding `CCCCCC(=O)N[C@@H](Cc1ccccc1)C(=O)O` [Compound 21-Na, N--Caproyl-L-phenylalanine], in data set [1], the “Urinary excretions (%) 0-2 (hr.)” value is reported as 16.8%, the “Urinary excretions (%) 2-4 (hr.)” value is 2.0%, the “Urinary excretions (%) 4-6 (hr.)” value turned out to be 1.1% and the “Urinary excretions (%) Total (0-6 hr.)” value is 19.9%.

For `CCCCCCCCCCCCCCCC(=O)N[C@@H](CC(=O)O)C(=O)O` [Compound 27-Na, N--Palmitoyl-L-aspartic acid], in data set [2] (Cefotiam 125 mg (potency)), the “Urinary excretions (%) 0-2 hr.” value is reported as 35.2%, the “Urinary excretions (%) 2-4 hr.” value came out at 6.2%, the “Urinary excretions (%) 4-6 hr.” value amounted to 0.5% and the “Urinary excretions (%) Total (0-6 hr.)” value came to 41.9%. In data set [1], the “Urinary excretions (%) 0-2 (hr.)” value turned out to be 22.0%, the “Urinary excretions (%) 2-4 (hr.)” value stood at 4.1%, the “Urinary excretions (%) 4-6 (hr.)” value is given as 0.7% and the “Urinary excretions (%) Total (0-6 hr.)” value was found to be 26.8%.

For `CC(=O)O` [Acetic acid Na, Acetic acid, reference compound], the “Urinary excretions of AB-PC (%) (0-6 hr.)” value in data set [1] worked out at 3.6%.

Turning to `O=C(O)Cc1ccccc1` [Phenylacetic acid Na, Phenylacetic acid, reference compound], in data set [1], the “Urinary excretions of AB-PC (%) (0-6 hr.)” value came out at 5.8%.

`CCCCCCCCCC(=O)NCCC(=O)O` [Compound 16-Na, N--(n-Caprinoyl)-β-alanine]: in data set [2] (Cefmetazole 125 mg (potency)), the “Urinary excretions (%) 0-2 hr.” value was found to be 43.1%, the “Urinary excretions (%) 2-4 hr.” value was 19.9%, the “Urinary excretions (%) 4-6 hr.” value is 2.9% and the “Urinary excretions (%) Total (0-6 hr.)” value turned out to be 69.1%.

For `CCCCc1ccc(C(=O)O)cc1` [Compound 4-Na, p-Butylbenzoic acid], in data set [2] (Cefsulodin 125 mg (potency)), the “Urinary excretions (%) 0-2 hr.” value came out at 30.5%, the “Urinary excretions (%) 2-4 hr.” value is recorded as 15.0%, the “Urinary excretions (%) 4-6 hr.” value is 1.1% and the “Urinary excretions (%) Total (0-6 hr.)” value turned out to be 45.6%. In addition, the “Urinary excretions of AB-PC (%) (0-6 hr.)” value in data set [1] stood at 28.6%.

For `CC(=O)NCC(=O)[O-].[Na+]` [N--Acetylglycine Na, N--Acetylglycine, reference compound], the “Urinary excretions of AB-PC (%) (0-6 hr.)” value in data set [1] is given as 2.5%.

As for `O=C(O)CCCCCC(=O)O` [Pimelic acid Na, Pimelic acid, reference compound], the “Urinary excretions of AB-PC (%) (0-6 hr.)” value in data set [1] is recorded as 6.0%.

On to `c1ccc2nc3ccccc3cc2c1` [Acridine, reference compound], for which the “Urinary excretions of AB-PC (%) (0-6 hr.)” value in data set [1] was determined as 2.1%.

For the molecule `CCCCCCCCCCNC(=O)/C=C\C(=O)O` [Compound 13-Na, N--(n-Decyl)maleamic acid], in data set [2] (FK-749 125 mg (potency)), the “Urinary excretions (%) 0-2 hr.” value stood at 39.1%, the “Urinary excretions (%) 2-4 hr.” value was determined as 18.0%, the “Urinary excretions (%) 4-6 hr.” value amounted to 2.1% and the “Urinary excretions (%) Total (0-6 hr.)” value turned out to be 59.2%.

As for `CCCCCCCC(=O)N(C)c1ccc(C(=O)O)cc1` [Compound 18-Na, N--(n-Caprylyl)-4-methylaminobenzoic acid], in data set [2] (6059-S 125 mg (potency)), the “Urinary excretions (%) 0-2 hr.” value turned out to be 42.2%, the “Urinary excretions (%) 2-4 hr.” value is reported as 18.8%, the “Urinary excretions (%) 4-6 hr.” value stood at 3.6% and the “Urinary excretions (%) Total (0-6 hr.)” value worked out at 64.6%.

For `O=C(O)c1ccccc1O` [Salicylic acid Na, Salicylic acid, reference compound], the “Urinary excretions of AB-PC (%) (0-6 hr.)” value in data set [1] was determined as 9.6%.

Consider `CC1CCC(C(C)C)C(OCC(=O)O)C1` [Compound 11-Na, L-Menthoxyacetic acid], for which, in data set [1], the “Urinary excretions of AB-PC (%) (0-6 hr.)” value worked out at 20.0%.
